Assay results reported in patent US20240376163A1, “PEPTIDE FOR INHIBITING CALCINEURIN AND USE THEREOF” (Seoul National University R&DB Foundation, priority 2023, published 2024).

Tested on: Jurkat T cells
Experiment: mRNA sequencing of activated Jurkat T cells
Assay type: cell-based, human
Details: P + I

PEITVTPPTP [CABIN1-L-1-2]
MSMO1 FPKM (Jurkat T cells): 52.664 FPKM
MT2A FPKM (Jurkat T cells): 409.501 FPKM
MXD3 FPKM (Jurkat T cells): 20.08 FPKM
MYB FPKM (Jurkat T cells): 48.107 FPKM
MZB1 FPKM (Jurkat T cells): 23.597 FPKM
N4BP3 FPKM (Jurkat T cells): 2.499 FPKM
NAA16 FPKM (Jurkat T cells): 3.877 FPKM
NCKAP1 FPKM (Jurkat T cells): 10.157 FPKM
NCOA3 FPKM (Jurkat T cells): 11.775 FPKM
NDRG1 FPKM (Jurkat T cells): 128.386 FPKM
NDRG2 FPKM (Jurkat T cells): 2.149 FPKM
NEDD9 FPKM (Jurkat T cells): 4.972 FPKM
NFATC1 FPKM (Jurkat T cells): 3.916 FPKM
NFKB1 FPKM (Jurkat T cells): 44.661 FPKM
NFKB2 FPKM (Jurkat T cells): 71.869 FPKM
NLRC3 FPKM (Jurkat T cells): 5.507 FPKM
NME4 FPKM (Jurkat T cells): 17.501 FPKM
NOTCH2 FPKM (Jurkat T cells): 12.916 FPKM
NOTCH3 FPKM (Jurkat T cells): 0.859 FPKM
NPDC1 FPKM (Jurkat T cells): 5.64 FPKM
NR4A3 FPKM (Jurkat T cells): 1.977 FPKM
NREP FPKM (Jurkat T cells): 6.879 FPKM
NRP1 FPKM (Jurkat T cells): 14.016 FPKM
NSG1 FPKM (Jurkat T cells): 3.929 FPKM
NSMF FPKM (Jurkat T cells): 3.265 FPKM
NT5E FPKM (Jurkat T cells): 12.217 FPKM
NTRK1 FPKM (Jurkat T cells): 1.657 FPKM
ODC1 FPKM (Jurkat T cells): 374.309 FPKM
OPTN FPKM (Jurkat T cells): 14.333 FPKM
OSBPL5 FPKM (Jurkat T cells): 3.123 FPKM
PAM FPKM (Jurkat T cells): 1.934 FPKM
PCNA-AS1 FPKM (Jurkat T cells): 71.806 FPKM
PDCD1 FPKM (Jurkat T cells): 1.974 FPKM
PDGFA FPKM (Jurkat T cells): 8.169 FPKM
PDGFC FPKM (Jurkat T cells): 2.913 FPKM
PDIA6 FPKM (Jurkat T cells): 128.39 FPKM
PDLIM1 FPKM (Jurkat T cells): 5.135 FPKM
PELI2 FPKM (Jurkat T cells): 8.166 FPKM
PEX5L FPKM (Jurkat T cells): 1.299 FPKM
PHACTR2 FPKM (Jurkat T cells): 2.791 FPKM
PHLDB2 FPKM (Jurkat T cells): 3.404 FPKM
PI16 FPKM (Jurkat T cells): 9.625 FPKM
PKIG FPKM (Jurkat T cells): 11.17 FPKM
PKM FPKM (Jurkat T cells): 1838.428 FPKM
PLAC8 FPKM (Jurkat T cells): 1.896 FPKM
PLEC FPKM (Jurkat T cells): 25.453 FPKM
PLS3 FPKM (Jurkat T cells): 0.37 FPKM
POTEE FPKM (Jurkat T cells): 1.196 FPKM
POU2AF1 FPKM (Jurkat T cells): 2.971 FPKM
POU2F2 FPKM (Jurkat T cells): 4.109 FPKM
PPIF FPKM (Jurkat T cells): 106.533 FPKM
PPP1R15A FPKM (Jurkat T cells): 76.265 FPKM
PPP1R16B FPKM (Jurkat T cells): 26.306 FPKM
PRDM8 FPKM (Jurkat T cells): 40.783 FPKM
PRNP FPKM (Jurkat T cells): 41.922 FPKM
PSMB10 FPKM (Jurkat T cells): 125.268 FPKM
PTPN6 FPKM (Jurkat T cells): 20.806 FPKM
PTPN7 FPKM (Jurkat T cells): 78.61 FPKM
PXYLP1 FPKM (Jurkat T cells): 4.92 FPKM
QPRT FPKM (Jurkat T cells): 10.818 FPKM
RAB37 FPKM (Jurkat T cells): 1.369 FPKM
RASGRP1 FPKM (Jurkat T cells): 3.909 FPKM
RASGRP2 FPKM (Jurkat T cells): 2.335 FPKM
RB1 FPKM (Jurkat T cells): 49.538 FPKM
RCBTB2 FPKM (Jurkat T cells): 7.77 FPKM
RCOR2 FPKM (Jurkat T cells): 1.298 FPKM
RGS2 FPKM (Jurkat T cells): 3.39 FPKM
RHOU FPKM (Jurkat T cells): 1.378 FPKM
RNF19A FPKM (Jurkat T cells): 12.101 FPKM
RNF212 FPKM (Jurkat T cells): 1.401 FPKM
RORA FPKM (Jurkat T cells): 1.998 FPKM
RRAS2 FPKM (Jurkat T cells): 20.023 FPKM
RTN4R FPKM (Jurkat T cells): 1.548 FPKM
RUNX1 FPKM (Jurkat T cells): 28.867 FPKM
RUNX3 FPKM (Jurkat T cells): 28.166 FPKM
SASH3 FPKM (Jurkat T cells): 46.514 FPKM
SBK1 FPKM (Jurkat T cells): 5.945 FPKM
SCG2 FPKM (Jurkat T cells): 86.711 FPKM
SCHIP1 FPKM (Jurkat T cells): 1.333 FPKM
SEPT3 FPKM (Jurkat T cells): 0.994 FPKM
SEPT6 FPKM (Jurkat T cells): 44.841 FPKM
SEPT9 FPKM (Jurkat T cells): 39.741 FPKM
SERINC5 FPKM (Jurkat T cells): 3.312 FPKM
SERPINB8 FPKM (Jurkat T cells): 23.508 FPKM
SERPINE2 FPKM (Jurkat T cells): 3.911 FPKM
SERTAD1 FPKM (Jurkat T cells): 14.426 FPKM
SGK1 FPKM (Jurkat T cells): 105.258 FPKM
SH2D1A FPKM (Jurkat T cells): 16.781 FPKM
SH2D2A FPKM (Jurkat T cells): 22.586 FPKM
SH3TC1 FPKM (Jurkat T cells): 1.895 FPKM
SIVA1 FPKM (Jurkat T cells): 51.964 FPKM
SLAMF1 FPKM (Jurkat T cells): 0.275 FPKM
SLAMF7 FPKM (Jurkat T cells): 3.544 FPKM
SLAMF8 FPKM (Jurkat T cells): 5.828 FPKM
SLC22A1 FPKM (Jurkat T cells): 42.379 FPKM
SLC27A2 FPKM (Jurkat T cells): 41.908 FPKM
SLC29A4 FPKM (Jurkat T cells): 1.658 FPKM
SLC35E4 FPKM (Jurkat T cells): 1.517 FPKM
SLC35G2 FPKM (Jurkat T cells): 11.385 FPKM
SMAD1 FPKM (Jurkat T cells): 3.995 FPKM
SMOX FPKM (Jurkat T cells): 18.934 FPKM
SMPD1 FPKM (Jurkat T cells): 18.206 FPKM
SORBS1 FPKM (Jurkat T cells): 0.511 FPKM
SOX4 FPKM (Jurkat T cells): 55.775 FPKM
SPINT1 FPKM (Jurkat T cells): 1.712 FPKM
SPRY1 FPKM (Jurkat T cells): 4.901 FPKM
SPRY4 FPKM (Jurkat T cells): 7.991 FPKM
SPSB1 FPKM (Jurkat T cells): 9.593 FPKM
SPTBN2 FPKM (Jurkat T cells): 2.053 FPKM
SRGN FPKM (Jurkat T cells): 9.743 FPKM
SSBP2 FPKM (Jurkat T cells): 5.549 FPKM
ST3GAL6 FPKM (Jurkat T cells): 5.239 FPKM
STAT2 FPKM (Jurkat T cells): 36.117 FPKM
STAT3 FPKM (Jurkat T cells): 74.439 FPKM
STAU2 FPKM (Jurkat T cells): 5.719 FPKM
STMN3 FPKM (Jurkat T cells): 7.407 FPKM
STX1A FPKM (Jurkat T cells): 13.882 FPKM
SYK FPKM (Jurkat T cells): 6.222 FPKM
TAGAP FPKM (Jurkat T cells): 8.731 FPKM
TAL1 FPKM (Jurkat T cells): 18.466 FPKM
TAP2 FPKM (Jurkat T cells): 6.702 FPKM
TAPBPL FPKM (Jurkat T cells): 20.693 FPKM
TBC1D4 FPKM (Jurkat T cells): 13.191 FPKM
TBC1D5 FPKM (Jurkat T cells): 3.021 FPKM
TBKBP1 FPKM (Jurkat T cells): 22.205 FPKM
TCF3 FPKM (Jurkat T cells): 36.607 FPKM
TCF7 FPKM (Jurkat T cells): 11.184 FPKM
TCF12 FPKM (Jurkat T cells): 29.903 FPKM
TDRD9 FPKM (Jurkat T cells): 1.888 FPKM
TGFBR2 FPKM (Jurkat T cells): 36.254 FPKM
THEM6 FPKM (Jurkat T cells): 2.542 FPKM
THEMIS FPKM (Jurkat T cells): 35.627 FPKM
TIAF1 FPKM (Jurkat T cells): 9.375 FPKM
TIAM1 FPKM (Jurkat T cells): 9.551 FPKM
TIAM2 FPKM (Jurkat T cells): 0.301 FPKM
TLE1 FPKM (Jurkat T cells): 1.647 FPKM
TMCC3 FPKM (Jurkat T cells): 7.278 FPKM
TNFAIP3 FPKM (Jurkat T cells): 35.424 FPKM
TNFRSF10B FPKM (Jurkat T cells): 36.431 FPKM
TNFSF10 FPKM (Jurkat T cells): 49.452 FPKM
TNFSF14 FPKM (Jurkat T cells): 4.255 FPKM
TPM4 FPKM (Jurkat T cells): 178.336 FPKM
TPST2 FPKM (Jurkat T cells): 29.147 FPKM
TRAF3IP3 FPKM (Jurkat T cells): 11.237 FPKM
TRIB1 FPKM (Jurkat T cells): 4.108 FPKM
TRIM21 FPKM (Jurkat T cells): 42.08 FPKM
TTLL1 FPKM (Jurkat T cells): 3.295 FPKM
UBE2L6 FPKM (Jurkat T cells): 167.347 FPKM
UHRF1 FPKM (Jurkat T cells): 6.903 FPKM
VAMP1 FPKM (Jurkat T cells): 14.752 FPKM
VAT1 FPKM (Jurkat T cells): 40.336 FPKM
VAV1 FPKM (Jurkat T cells): 22.182 FPKM
WARS FPKM (Jurkat T cells): 112.259 FPKM
WDR76 FPKM (Jurkat T cells): 8.215 FPKM
XCL1 FPKM (Jurkat T cells): 1.144 FPKM
XCL2 FPKM (Jurkat T cells): 2.074 FPKM
XIRP1 FPKM (Jurkat T cells): 13.281 FPKM
XRCC6BP1 FPKM (Jurkat T cells): 9.204 FPKM
YPEL1 FPKM (Jurkat T cells): 4.38 FPKM
ZFP36L1 FPKM (Jurkat T cells): 136.279 FPKM
ZFP36L2 FPKM (Jurkat T cells): 9.774 FPKM
ZNF280D FPKM (Jurkat T cells): 2.132 FPKM
ZNF367 FPKM (Jurkat T cells): 2.274 FPKM
ZNF480 FPKM (Jurkat T cells): 6.823 FPKM
ZNF521 FPKM (Jurkat T cells): 1.965 FPKM
ZNF652 FPKM (Jurkat T cells): 2.469 FPKM
ZNF704 FPKM (Jurkat T cells): 0.183 FPKM
ZNF827 FPKM (Jurkat T cells): 1.372 FPKM
ZNFX1 FPKM (Jurkat T cells): 19.096 FPKM
ZP4 FPKM (Jurkat T cells): 5.182 FPKM
ZYX FPKM (Jurkat T cells): 85.489 FPKM
ADORA2A FPKM: 1.475 FPKM
AGK FPKM: 14.306 FPKM
ARHGEF3 FPKM: 8.674 FPKM
ASAP1 FPKM: 9.052 FPKM
ATG14 FPKM: 11.252 FPKM
ATP6V1B2 FPKM: 60.661 FPKM
BCL2L1 FPKM: 41.852 FPKM
C3 FPKM: 1.329 FPKM
C10orf54 FPKM: 0.487 FPKM
CABP1 FPKM: 1.689 FPKM
CCDC64 FPKM: 11.039 FPKM
CCL1 FPKM: 0.415 FPKM
CCL3 FPKM: 0.502 FPKM
CCL3L1 FPKM: 0.079 FPKM
CCL3L3 FPKM: 0.079 FPKM
CCL4 FPKM: 4.062 FPKM
CCL4L1 FPKM: 0.328 FPKM
CCL4L2 FPKM: 0.328 FPKM
CCL20 FPKM: 1.279 FPKM
CCND2 FPKM: 0.99 FPKM
CD27-AS1 FPKM: 4.613 FPKM
CD27 FPKM: 3.4 FPKM
CD55 FPKM: 12.082 FPKM
CD70 FPKM: 7.606 FPKM
CD97 FPKM: 21.496 FPKM
CD200 FPKM: 0.094 FPKM
COL27A1 FPKM: 5.729 FPKM
CREB5 FPKM: 1.966 FPKM
